Laboratory results taken from PubChem BioAssay AID248 (DTP/NCI, 2004).
“And” between values parts separate entries of the source, which are not always exact repeats. Equal entries are not always repeated. Inconclusive results and toxic doses are left out. No stated cut-off is given here; in the data, active means T/C of 150% or more; inactive means T/C below 125%.

System: L1210 leukemia ip in BDF1 mice, survival T/C
Experiment: NCI In Vivo Anticancer Drug Screen. Data for tumor model L1210 Leukemia (intraperitoneal) in B6D2F1 (BDF1) mice
Conditions: endpoint: mean survival time, higher = longer survival
Summary of the method: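 Read-out is survival time, reported as the treated-group measurement over the vehicle-control measurement.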

[1] = dose: 50.0 mg/kg/injection, schedule: Q01DX009 (ip), vehicle: saline with Tween-80
[2] = dose: 6.25 mg/kg/injection, schedule: Q01DX009 (ip), vehicle: Klucel (hydroxypropylcellulose) (HPC)
[3] = dose: 12.5 mg/kg/injection, schedule: Q01DX009 (ip), vehicle: Klucel (hydroxypropylcellulose) (HPC)
[4] = dose: 100.0 mg/kg/injection, schedule: Q04DX003 (ip), vehicle: Klucel (hydroxypropylcellulose) (HPC)
[5] = dose: 200.0 mg/kg/injection, schedule: Q04DX003 (ip), vehicle: Klucel (hydroxypropylcellulose) (HPC)
[6] = dose: 400.0 mg/kg/injection, schedule: Q04DX003 (ip), vehicle: Klucel (hydroxypropylcellulose) (HPC)
[7] = dose: 25.0 mg/kg/injection, schedule: Q01DX009 (ip), vehicle: Klucel (hydroxypropylcellulose) (HPC)
[8] = dose: 50.0 mg/kg/injection, schedule: Q01DX009 (ip), vehicle: Klucel (hydroxypropylcellulose) (HPC)
[9] = dose: 100.0 mg/kg/injection, schedule: Q01DX009 (ip), vehicle: Klucel (hydroxypropylcellulose) (HPC)
[10] = dose: 100.0 mg/kg/injection, schedule: Q01DX009 (ip), vehicle: saline with Tween-80
[11] = dose: 100.0 mg/kg/injection, schedule: Q04DX002 (ip), vehicle: saline with Tween-80
[12] = dose: 100.0 mg/kg/injection, schedule: Q04DX003 (ip), vehicle: saline with Tween-80
[13] = dose: 200.0 mg/kg/injection, schedule: Q01DX009 (ip), vehicle: saline with Tween-80
[14] = dose: 200.0 mg/kg/injection, schedule: Q04DX002 (ip), vehicle: saline with Tween-80
[15] = dose: 400.0 mg/kg/injection, schedule: Q04DX002 (ip), vehicle: saline with Tween-80
[16] = dose: 100.0 mg/kg/injection, schedule: Q01DX009 (ip), vehicle: saline
[17] = dose: 200.0 mg/kg/injection, schedule: Q01DX009 (ip), vehicle: Klucel (hydroxypropylcellulose) (HPC)
[18] = dose: 400.0 mg/kg/injection, schedule: Q01DX009 (ip), vehicle: Klucel (hydroxypropylcellulose) (HPC)
[19] = dose: 100.0 mg/kg/injection, schedule: Q04DX002 (ip), vehicle: Klucel (hydroxypropylcellulose) (HPC)
[20] = dose: 200.0 mg/kg/injection, schedule: Q04DX002 (ip), vehicle: Klucel (hydroxypropylcellulose) (HPC)

Measured: T/C

CC(=O)N/C(N)=N/N=C(C)/C=N\N
inactive: dose: 15.0 mg/kg/injection, schedule: Q01DX Z (ip), vehicle: carboxymethylcellulose (CMC) 96 % of control | dose: 30.0 mg/kg/injection, schedule: Q01DX Z (ip), vehicle: carboxymethylcellulose (CMC) 96 % of control | dose: 60.0 mg/kg/injection, schedule: Q01DX Z (ip), vehicle: carboxymethylcellulose (CMC) 101 % of control | dose: 120.0 mg/kg/injection, schedule: Q01DX Z (ip), vehicle: carboxymethylcellulose (CMC) 101 % of control | dose: 120.0 mg/kg/injection, schedule: Q01DX Z (oral), vehicle: carboxymethylcellulose (CMC) 111 % of control

CCOC(=O)c1ccc(N(CC(N)O)S(=O)(=O)c2ccc(C)cc2)cc1 (centres undefined)
inactive: dose: 12.5 mg/kg/injection, schedule: Q01DX009 (ip), vehicle: saline with Tween-80 96 % of control | dose: 25.0 mg/kg/injection, schedule: Q01DX009 (ip), vehicle: saline with Tween-80 98 % of control | [1] 98 % of control

Cc1cc(C2=NCCN2)ccc1NC(=O)c1ccc(C(=O)Nc2ccc(C3=NCCN3)cc2C)cc1
inactive: dose: 15.0 mg/kg/injection, schedule: Q01DX Z (ip), vehicle: saline 100 % of control | dose: 30.0 mg/kg/injection, schedule: Q01DX Z (ip), vehicle: saline 106 % of control | dose: 60.0 mg/kg/injection, schedule: Q01DX Z (ip), vehicle: saline 110 % of control

O=C1OCCN1S(=O)(=O)c1ccc([N+](=O)[O-])cc1
inactive: dose: 3.12 mg/kg/injection, schedule: Q01DX009 (ip), vehicle: Klucel (hydroxypropylcellulose) (HPC) 94 % of control | [2] 93 % of control | [3] 94 % of control | dose: 100.0 mg/kg/injection, schedule: Q01DX001 (ip), vehicle: Klucel (hydroxypropylcellulose) (HPC) 86 % of control | [4] 97 % of control | dose: 200.0 mg/kg/injection, schedule: Q01DX001 (ip), vehicle: Klucel (hydroxypropylcellulose) (HPC) 91 % of control | [5] 92 % of control | [6] 88 % of control

O=C1c2ccccc2C(Cl)=C(Cl)C1(Cl)Cl
inactive: [7] 90 % of control | [8] 90 % of control | [9] 90 % of control | [4] 96 % of control

CCOc1ccc(OCC)c(NC(=O)Nc2cc(Cl)ccc2OC)c1
inactive: dose: 100.0 mg/kg/injection, schedule: Q01DX001 (ip), vehicle: saline with Tween-80 95 % of control | [10] 111 % of control and 90 % of control | [11] 98 % of control and 91 % of control | [12] 96 % of control | dose: 200.0 mg/kg/injection, schedule: Q01DX001 (ip), vehicle: saline with Tween-80 88 % of control | [13] 101 % of control and 92 % of control | [14] 94 % of control and 103 % of control | dose: 200.0 mg/kg/injection, schedule: Q04DX003 (ip), vehicle: saline with Tween-80 94 % of control | dose: 400.0 mg/kg/injection, schedule: Q01DX001 (ip), vehicle: saline with Tween-80 87 % of control | dose: 400.0 mg/kg/injection, schedule: Q01DX009 (ip), vehicle: saline with Tween-80 89 % of control | [15] 91 % of control and 92 % of control | dose: 400.0 mg/kg/injection, schedule: Q04DX003 (ip), vehicle: saline with Tween-80 91 % of control

CCOC(OCC)c1cc[n+](CCc2ccc(OC)c(OC)c2)cc1
inactive: dose: 25.0 mg/kg/injection, schedule: Q01DX009 (ip), vehicle: saline 101 % of control | dose: 25.0 mg/kg/injection, schedule: Q04DX003 (ip), vehicle: saline with Tween-80 95 % of control | dose: 50.0 mg/kg/injection, schedule: Q01DX009 (ip), vehicle: saline 101 % of control | dose: 50.0 mg/kg/injection, schedule: Q04DX003 (ip), vehicle: saline with Tween-80 88 % of control | [16] 98 % of control | [12] 95 % of control

c1ccc2c(c1)ccc1c(C3CO3)cccc12 (centres undefined)
inactive: [11] 101 % of control | [14] 98 % of control | [15] 88 % of control

CN1CCN(c2ncnc3c2ncn3C2OC(CO)C(O)C2O)CC1 (centres undefined)
inactive: dose: 100.0 mg/kg/injection, schedule: Q01DX005 (ip), vehicle: water 95 % of control | dose: 200.0 mg/kg/injection, schedule: Q01DX005 (ip), vehicle: water 90 % of control | dose: 400.0 mg/kg/injection, schedule: Q01DX005 (ip), vehicle: water 93 % of control

CCCCCCCCCCCCCCCCCCNC(=O)Nc1cccc(OC)c1
inactive: dose: 25.0 mg/kg/injection, schedule: Q04DX002 (ip), vehicle: saline with Tween-80 102 % of control | dose: 50.0 mg/kg/injection, schedule: Q04DX002 (ip), vehicle: saline with Tween-80 89 % of control

CCOC(=O)/C(C#N)=C\c1ccccc1Cl
inactive: [8] 98 % of control | [9] 95 % of control | [4] 91 % of control | [17] 100 % of control | [5] 99 % of control

COc1ccc(/C=N/NC(=O)CNC(=O)Nc2cccc(Cl)c2)cc1
inactive: [1] 87 % of control

C=C1C(=O)OC2C3OC(C)(CCC(O)C3COC(C)=O)CC(OC(=O)/C(=C/C)COC(C)=O)C12 (centres undefined)
inactive: [2] 100 % of control | [3] 97 % of control | [7] 103 % of control

Cn1c(=O)n(OS(=O)(=O)c2ccccc2)c(=O)c2ccccc21
inactive: dose: 100.0 mg/kg/injection, schedule: Q01DX009 (ip), vehicle: other 107 % of control | dose: 200.0 mg/kg/injection, schedule: Q01DX009 (ip), vehicle: other 96 % of control | dose: 400.0 mg/kg/injection, schedule: Q01DX009 (ip), vehicle: other 98 % of control

CC(=O)c1ccc(OCc2ccccc2)cc1O
inactive: [16] 111 % of control | dose: 200.0 mg/kg/injection, schedule: Q01DX009 (ip), vehicle: saline 100 % of control | dose: 400.0 mg/kg/injection, schedule: Q01DX009 (ip), vehicle: saline 100 % of control

Cc1nc2c(N)nn(C)c2nc1C
inactive: [10] 96 % of control | [13] 102 % of control

CCC(=O)C1CCCCN1 (centres undefined)
inactive: dose: 25.0 mg/kg/injection, schedule: Q04DX002 (ip), vehicle: saline 94 % of control | dose: 50.0 mg/kg/injection, schedule: Q04DX002 (ip), vehicle: saline 94 % of control

CCCCCCCC(=O)CCC
inactive: [9] 108 % of control | [4] 98 % of control | [17] 104 % of control | [5] 89 % of control | [18] 102 % of control | [6] 89 % of control

CCN(C(=O)/C=C/c1ccccc1)C1CCCCC1
inactive: [9] 94 % of control | [4] 102 % of control | [17] 102 % of control | [5] 96 % of control | [18] 86 % of control | [6] 105 % of control

CC1(C)C2CCC1(C)C(COC(=O)c1cc([N+](=O)[O-])cc([N+](=O)[O-])c1)C2 (centres undefined)
inactive: [9] 100 % of control | [4] 104 % of control | [17] 92 % of control | [5] 100 % of control | [18] 89 % of control | [6] 102 % of control

Cc1ccc(NC(=O)/C=C/C(=O)Nc2ccc(C)cc2)cc1
inactive: dose: 100.0 mg/kg/injection, schedule: Q04DX003 (ip), vehicle: saline 103 % of control | dose: 200.0 mg/kg/injection, schedule: Q04DX003 (ip), vehicle: saline 100 % of control | dose: 400.0 mg/kg/injection, schedule: Q04DX003 (ip), vehicle: saline 103 % of control

O=C(Oc1ccc(S(=O)(=O)F)cc1F)c1ccccc1Cl
inactive: [19] 95 % of control | [20] 89 % of control

COc1ccc2c3c([nH]c2c1)-c1ccccc1SC3
inactive: dose: 100.0 mg/kg/injection, schedule: Q04DX003 (ip), vehicle: acetone 101 % of control | dose: 200.0 mg/kg/injection, schedule: Q04DX003 (ip), vehicle: acetone 106 % of control | dose: 400.0 mg/kg/injection, schedule: Q04DX003 (ip), vehicle: acetone 101 % of control

COc1cc(OC)c(NC(=S)Nc2ccccc2C(F)(F)F)cc1Cl
inactive: [19] 106 % of control | [17] 88 % of control | [20] 92 % of control | [18] 95 % of control | dose: 400.0 mg/kg/injection, schedule: Q04DX002 (ip), vehicle: Klucel (hydroxypropylcellulose) (HPC) 95 % of control
